Converted amounts (≈) assume the structure as drawn.

These results are taken from ChEMBL document CHEMBL3286199, “Synthesis, in vitro antimicrobial and cytotoxic activities of novel pyrimidine-benzimidazol combinations” (Bioorg Med Chem Lett, 2014).

Assay [1] has as its system Staphylococcus aureus. Briefly: Antimicrobial activity against Staphylococcus aureus after 18 to 24 hrs by broth microdilution method. Type of assay: functional. A general note: Dilution methods test growth across graded concentrations, often in twofold steps.
Assay [2] concerns Bacillus subtilis. Nature of the assay: Antimicrobial activity against Bacillus subtilis after 18 to 24 hrs by broth microdilution method. Type of assay: functional.
Assay [3] deals with Escherichia coli. Nature of the assay: Antimicrobial activity against Escherichia coli after 18 to 24 hrs by broth microdilution method. The format is functional.
Assay [4] relates to Stenotrophomonas maltophilia. Briefly: Antimicrobial activity against Stenotrophomonas maltophilia after 18 to 24 hrs by broth microdilution method. Type of assay: functional.
In assay [5] the test system is Candida albicans. Briefly: Antimicrobial activity against Candida albicans after 48 hrs by broth microdilution method. The format is functional.
The test system of assay [6] is MGC-803. Briefly: Cytotoxicity against human MGC803 cells after 72 hrs by MTT assay. The format is functional, cell-based. The following applies: MGC-803, 72 h.
In assay [7] the test system is MCF7. Nature of the assay: Cytotoxicity against human MCF7 cells after 72 hrs by MTT assay. Type of assay: functional, cell-based. The settings on record: MCF7, 72 h. (In general: Tetrazolium dyes change colour on reduction, which living cells bring about.)
Assay [8] in a line: Cytotoxicity against human EC109 cells after 72 hrs by MTT assay. Type of assay: functional, cell-based. The following applies: ECa-109, 72 h.
Assay [9] deals with PC-3. Nature of the assay: Cytotoxicity against human PC3 cells after 72 hrs by MTT assay. The format is functional, cell-based. The following applies: PC-3, 72 h.

In the case of `COc1ccccc1Nc1cc(C)nc(SCc2nc3ccccc3[nH]2)n1`, the minimum inhibitory concentration (MIC) is more than 128 µg/mL in assay [1]; 32 µg/mL (≈ 84.8 µM) in assay [2]; 32 µg/mL (≈ 84.8 µM) in assay [3]; 8 µg/mL (≈ 21.2 µM) in assay [4]; 128 µg/mL (≈ 339 µM) in assay [5]. The IC50 in assay [6] was 56.2 µM; in assay [7] it was more than 100 µM; in assay [8], 34.4 µM; in [9], 70.8 µM.
Turning to `Cc1cc(Nc2ccc(F)cc2)nc(SCc2nc3ccccc3[nH]2)n1`, the MIC came out at 32 µg/mL (≈ 87.6 µM) in assay [1]; 64 µg/mL (≈ 175 µM) in assay [2]; 64 µg/mL (≈ 175 µM) in assay [3]; 32 µg/mL (≈ 87.6 µM) in assay [4]; 8 µg/mL (≈ 21.9 µM) in assay [5]. Besides, the IC50 in [6] came to 5.77 µM; in assay [7] it was 42.2 µM; in assay [8] it was 69.5 µM; in assay [9] it was 56.2 µM.
Turning to `Cc1cc(Nc2ccc(Cl)cc2)nc(SCc2nc3ccccc3[nH]2)n1`, the MIC was determined as 8 µg/mL (≈ 20.9 µM) in assay [1]; 128 µg/mL (≈ 335 µM) in [2]; 128 µg/mL (≈ 335 µM) in assay [3]; 2 µg/mL (≈ 5.24 µM) in assay [4]; 64 µg/mL (≈ 168 µM) in [5]. Also, the IC50 in [6] worked out at 28.2 µM; in [7], 33.6 µM; in assay [8] it was 20.4 µM; in assay [9] it was 36 µM.
For the compound `Cc1cc(Nc2ccc(Br)cc2)nc(SCc2nc3ccccc3[nH]2)n1`, the MIC in assay [1] came to 16 µg/mL (≈ 37.5 µM); in assay [2] it was 128 µg/mL (≈ 300 µM); in [3], 128 µg/mL (≈ 300 µM); in assay [4], 4 µg/mL (≈ 9.38 µM); in assay [5] it was 8 µg/mL (≈ 18.8 µM). The IC50 in [6] amounted to 26.8 µM; in [7], 38 µM; in assay [8], 42.9 µM; in assay [9], 37.1 µM.
Turning to `Cc1ccc(Nc2cc(C)nc(SCc3nc4ccccc4[nH]3)n2)cc1`, the MIC is 32 µg/mL (≈ 88.5 µM) in assay [1]; 64 µg/mL (≈ 177 µM) in assay [2]; 32 µg/mL (≈ 88.5 µM) in assay [3]; 8 µg/mL (≈ 22.1 µM) in assay [4]; 64 µg/mL (≈ 177 µM) in [5]. The concentration for half-maximal inhibition (IC50) in assay [6] worked out at 7.39 µM; in assay [7], 56.5 µM; in assay [8], 57.3 µM; in assay [9] it was 56 µM.
For `COc1ccc(Nc2cc(C)nc(SCc3nc4ccccc4[nH]3)n2)cc1`, the MIC amounted to 64 µg/mL (≈ 170 µM) in assay [1]; 32 µg/mL (≈ 84.8 µM) in [2]; 128 µg/mL (≈ 339 µM) in assay [3]; 16 µg/mL (≈ 42.4 µM) in [4]; 64 µg/mL (≈ 170 µM) in assay [5]. Besides, the concentration for half-maximal inhibition (IC50) in [6] was found to be 51.1 µM; in assay [7], 61.1 µM; in assay [8], 69.8 µM; in assay [9], 67.4 µM.
With `Cc1cc(Nc2cccc(C(F)(F)F)c2)nc(SCc2nc3ccccc3[nH]2)n1`, the MIC in assay [1] was more than 128 µg/mL; in [2], more than 128 µg/mL; in assay [3], more than 128 µg/mL; in assay [4] it was 8 µg/mL (≈ 19.3 µM); in assay [5], more than 128 µg/mL. The IC50 in assay [6], in [7], in assay [8] and in [9] was more than 100 µM in each case.
Regarding `Cc1cc(NCCO)nc(SCc2nc3ccccc3[nH]2)n1`, the MIC in assay [1] was more than 128 µg/mL; in assay [2] it was more than 128 µg/mL; in assay [3], 64 µg/mL (≈ 203 µM); in assay [4], 64 µg/mL (≈ 203 µM); in assay [5], more than 128 µg/mL. For the same compound, the IC50 in [6], in assay [7], in assay [8] and in assay [9] was more than 100 µM each time.
As for `Cc1cc(N(CCO)CCO)nc(SCc2nc3ccccc3[nH]2)n1`, the MIC is more than 128 µg/mL in assay [1]; more than 128 µg/mL in assay [2]; 64 µg/mL (≈ 178 µM) in assay [3]; 128 µg/mL (≈ 356 µM) in [4]; more than 128 µg/mL in [5]. Further, the IC50 in [6], in [7], in assay [8] and in assay [9] was more than 100 µM in each case.
Take `Cc1cc(NNC(N)=S)nc(SCc2nc3ccccc3[nH]2)n1`: the MIC in [1] is more than 128 µg/mL; in [2], more than 128 µg/mL; in assay [3] it was more than 128 µg/mL; in [4], 128 µg/mL (≈ 371 µM); in assay [5], 128 µg/mL (≈ 371 µM). Also, the IC50 in [6], in [7], in [8] and in [9] was more than 100 µM each time.
For the compound `Cc1cc(NC(C)C)nc(SCc2nc3ccccc3[nH]2)n1`, the MIC is more than 128 µg/mL in assay [1]; more than 128 µg/mL in assay [2]; more than 128 µg/mL in [3]; 32 µg/mL (≈ 102 µM) in assay [4]; 128 µg/mL (≈ 408 µM) in assay [5]. Also, the concentration for half-maximal inhibition (IC50) in [6], in assay [7], in [8] and in assay [9] was more than 100 µM throughout.
`Cc1cc(N2CCCCC2)nc(SCc2nc3ccccc3[nH]2)n1`: the MIC in assay [1] was more than 128 µg/mL; in assay [2], more than 128 µg/mL; in assay [3] it was more than 128 µg/mL; in assay [4], 64 µg/mL (≈ 189 µM); in assay [5], 32 µg/mL (≈ 94.3 µM). The IC50 in assay [6], in [7], in assay [8] and in assay [9] was more than 100 µM in each case.
Consider `Cc1cc(N2CCNCC2)nc(SCc2nc3ccccc3[nH]2)n1`, for which the MIC in [1] is more than 128 µg/mL; in [2] it was 128 µg/mL (≈ 376 µM); in assay [3], more than 128 µg/mL; in assay [4] it was 32 µg/mL (≈ 94 µM); in assay [5], more than 128 µg/mL. Also, the IC50 in assay [6], in [7], in [8] and in assay [9] was more than 100 µM throughout.
As to `Cc1cc(N2CCOCC2)nc(SCc2nc3ccccc3[nH]2)n1`, the MIC in assay [1] is more than 128 µg/mL; in assay [2], more than 128 µg/mL; in [3], more than 128 µg/mL; in assay [4], 32 µg/mL (≈ 93.7 µM); in assay [5], more than 128 µg/mL. Further, the IC50 in assay [6], in [7], in assay [8] and in [9] was more than 100 µM throughout.
As to `Cc1cc(N(C)Cc2ccccc2)nc(SCc2nc3ccccc3[nH]2)n1`, the MIC in assay [1] was 128 µg/mL (≈ 341 µM); in [2], more than 128 µg/mL; in assay [3], more than 128 µg/mL; in assay [4], 16 µg/mL (≈ 42.6 µM); in [5] it was 128 µg/mL (≈ 341 µM). Moreover, the IC50 in assay [6] was 31.3 µM; in assay [7], more than 100 µM; in assay [8], more than 100 µM; in [9], more than 100 µM.
The compound `OC(Cn1cncn1)(Cn1cncn1)c1ccc(F)cc1F` [FLUCONAZOLE] gave a minimum inhibitory concentration (MIC) in [5] of 2 µg/mL (≈ 6.53 µM).
With `O=c1[nH]cc(F)c(=O)[nH]1` [FLUOROURACIL], the IC50 worked out at 8.13 µM in assay [6], 7.76 µM in assay [7], 24.1 µM in assay [8] and 4.68 µM in [9].
For `C[C@H]1COc2c(N3CCN(C)CC3)c(F)cc3c(=O)c(C(=O)O)cn1c23.C[C@H]1COc2c(N3CCN(C)CC3)c(F)cc3c(=O)c(C(=O)O)cn1c23.O` [LEVOFLOXACIN], the minimum inhibitory concentration (MIC) in [1] turned out to be 0.5 µg/mL; in assay [2], 0.25 µg/mL; in assay [3] it was 0.125 µg/mL; in [4], 0.25 µg/mL.

What is called MIC is the smallest concentration in the dilution series that meets the test's criterion for growth inhibition. One may read the IC50 as the concentration at which inhibition is half-maximal. Read a low IC50 as higher potency.
